From BindingDB's records for doi:10.7270/Q2902274 (Burnham Center For Chemical Genomics, 2010)
pIC50: −log10 of the molar value.

Biological target: Eukaryotic translation initiation factor 4H (Homo sapiens, UniProt Q15056)
Assay: inhibitors of translation initiation factor eIF4H – SAR follow-up (AID 435011)

**Q.** `COc1cc([CH+][N-]NC(=O)c2ccc(O)cc2)ccc1OCC(=O)Nc1cccc([N+](=O)[O-])c1` was tested. Which pIC50 did it give?
**A.** < 4.00
